We go through 4 molecules from US4699907A, “4-morpholinyl-1H-indoles, pharmaceutical compositions and use” (Roussel Uclaf, priority 1985, dated 1987).

One series deals with mice. Nature of the series: Acute toxicity study. The series is classed as in vivo. The following applies: oral administration to mice. The procedure: The lethal doses LDO of the different compounds tested were evaluated after oral administration to mice.
The next series has as its system male rats. Put plainly: Test of labyrinth in T after partial lesion of the septo hippocampic route. The series is classed as in vivo, rat. The following applies: electrolytic partial septo-hippocampic lesion, 20 mg/kg orally, 1 hour before test, days +5 to +8, compared to untreated animals. The procedure: A: Test of labyrinth in T after partial lesion of the septo hippocampic route
By means of an electrolytic partial lesion of neurons of the septo-hippocampic route, a disfunction of the cognitive faculty was provoked in male rats having acquired an apprenticeship in a labyrinth in the form of a T and then the speed of recovery of the disturbed memory faculties was measured. The animals got accustomed to their new environment on days -9 to -6 and rested on days -5 and -4. Their apprenticeship was carried out on days -3 to 0. At this time, the response of the rats was positive at 75-80%. On day 0, the lesion was carried out and the animals rested on days +1 to +3. The animals were tested on day +4 and at this time, only 50% of the responses were positive. From day +5 to +8, the rats were tested after being treated orally with the products under test 1 hour earlier. On day +11, the rats were tested without treatment. The percentage of positive responses of the treated animals were compared in relation to the untreated animals.

Another series relates to enolase γγ. Nature of the series: Test for enolase (kainic acid induced neuron lesions). Type of series: in vivo. The following applies: mice; 1 mg/kg intraperitoneally one hour before 35 mg/kg sub-cutaneous kainic acid.
The next series relates to hippocampus of the rat. Nature of the series: Test for neuron activation (accumulation of 2-deoxyglucose-6-phosphate). The series is classed as in vivo. The following applies: 14C 2-deoxyglucose tracer dose. The procedure:
C: Test for neuron activation
Neuron activation causes an increase in the corresponding metabolism which is shown by an increase in the consumption of glucose, a proof of energy consumption. This increase was evaluated by measuring the accumulation in the neuron cells of 2deoxyglucose-6-phosphate stemming from the conversion by hexokinase of 2-deoxyglucose ^14 C, an analogue of glucose, administered as a tracer dose, which used the same route of entry into the cell as glucose.

Consider `CN1C[C@H](CC#N)O[C@H](c2cccc3[nH]ccc23)C1` (relative stereo) [Example 5, (2SR, 6RS) 6-(1H-indol-4-yl)-4-methyl-2-morpholine acetonitrile], for which the “LDO (maximum dose which does not cause mortality in 8 days)” value with mice is given as at least 200 mg/kg.

“N,N-diethyl 6-(1H-indol-4-yl)-4-methyl-2-morpholine carboxamide [Example 2]”: the “LDO (maximum dose which does not cause mortality in 8 days)” value with mice is on record as at least 200 mg/kg.

Turning to `CSC[C@H]1CN(C)C[C@@H](c2cccc3[nH]ccc23)O1` (relative stereo) [Example 4, 4-[(2R-cis) 4-methyl-6-[(methylthio)methyl]-2-morpholinyl]-1H-indole (dl)], the “recovery of the memory functions” value in the series with male rats is on record as “significantly improved the recovery of the memory functions”. The “decrease of the serous concentration of enolase γγ” value in the series on enolase γγ is listed as 34%. Moreover, the “accumulation of 2-deoxyglucose 6-P in the hippocampus” value in the series with hippocampus of the rat was “increase in the accumulation of 2-deoxyglucose 6-P”. Moreover, in the series with mice, the “LDO (maximum dose which does not cause mortality in 8 days)” value is 200 mg/kg.

With `CN1C[C@H](CO)O[C@H](c2cccc3[nH]ccc23)C1` (relative stereo) [Example 3, (2RS, 6RS) 6-(1H-indol-4-yl)-4-methyl-2-morpholine methanol], in the series on mice, the “LDO (maximum dose which does not cause mortality in 8 days)” value was at least 400 mg/kg.
